From ChEMBL document CHEMBL1132099, “The design of potent and selective inhibitors of thrombin utilizing a piperazinedione template: part 2” (Bioorg Med Chem Lett, 1999)
pIC50, pKi: −log10 of the molar value.

How the values were obtained:
[1] = target: T1, Prothrombin (Homo sapiens, UniProt P00734); assay: Inhibitory concentration required against thrombin was determined
[2] = target: T2, Serine protease 1 (Homo sapiens, UniProt P07477); assay: Inhibitory concentration required against trypsin was determined
T2 sequence (P07477 whole entry): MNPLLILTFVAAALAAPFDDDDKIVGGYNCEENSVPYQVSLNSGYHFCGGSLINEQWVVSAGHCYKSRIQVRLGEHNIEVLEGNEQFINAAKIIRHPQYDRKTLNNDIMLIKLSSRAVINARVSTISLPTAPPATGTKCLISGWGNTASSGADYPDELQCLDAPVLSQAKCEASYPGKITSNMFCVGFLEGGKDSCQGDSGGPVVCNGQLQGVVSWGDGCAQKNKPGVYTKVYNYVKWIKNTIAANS

[3] = target: T1, Prothrombin; assay: Inhibition of thrombin
[4] = test system: Trypsin; assay: Compound was tested for percent inhibition against trypsin at 100 uM
[5] = target: T2, Serine protease 1; assay: Compound was tested for percent inhibition against trypsin at 100 uM

| SMILES | pIC50 [1] | pIC50 [2] | pKi [3] | inhibition [4] [%] | inhibition [5] [%] |
| --- | --- | --- | --- | --- | --- |
| N=C(N)N1CCCC(C[C@H](NC(=O)CN2C(=O)CN(CCCc3ccccc3)C(=O)[C@H]2Cc2ccc(Cl)cc2)C(=O)c2nccs2)C1 (some centres not stated) | 6.55 | 4.77 |  |  |  |
| N=C(N)NCCC[C@H](NC(=O)CN1C(=O)CN(CCCc2ccccc2)C(=O)[C@H]1Cc1ccccc1)C(=O)c1nccs1 | 5.47 | 7.02 |  |  |  |
| N=C(N)N1CCCC(C[C@H](NC(=O)CN2C(=O)CN(CCCc3ccccc3)C(=O)[C@H]2Cc2ccc3ccccc3c2)C(=O)c2nccs2)C1 (some centres not stated) | 6.80 | 4.74 | 7.26 |  |  |
| N=C(N)N1CCCC(C[C@H](NC(=O)CN2C(=O)CN(CCCc3ccc(Cl)cc3)C(=O)[C@H]2Cc2ccccc2)C(=O)c2nccs2)C1 (some centres not stated) | 6.96 | 5.32 |  |  |  |
| N=C(N)N1CCCC(C[C@H](NC(=O)CN2C(=O)CN(CCCc3ccc(O)cc3)C(=O)[C@H]2Cc2ccccc2)C(=O)c2nccs2)C1 (some centres not stated) | 6.62 | 4.60 |  |  |  |
| N=C(N)NCCC[C@H](NC(=O)CN1C(=O)CN(CCCc2ccccc2)C(=O)[C@H]1Cc1ccccc1)C(=O)O |  |  |  | 20 | 20 |
| N=C(N)N1CCCC(C[C@H](NC(=O)CN2C(=O)CN(Cc3ccccc3)C(=O)[C@H]2Cc2ccccc2)C(=O)c2nccs2)C1 (some centres not stated) | 5.91 | 4.68 |  |  |  |
| N=C(N)N1CCCC(C[C@H](NC(=O)CN2C(=O)CN(CCCc3ccccc3)C(=O)[C@H]2C(c2ccccc2)c2ccccc2)C(=O)c2nccs2)C1 (some centres not stated) | 6.46 | 5.07 |  |  |  |
| Cc1ccc(CCCN2CC(=O)N(CC(=O)N[C@@H](CC3CCCN(C(=N)N)C3)C(=O)c3nccs3)[C@H](Cc3ccccc3)C2=O)cc1 (some centres not stated) | 6.68 | 5.39 |  |  |  |
| N=C(N)N1CCCC(C[C@H](NC(=O)CN2C(=O)CN(CCCc3ccc([N+](=O)[O-])cc3)C(=O)[C@H]2Cc2ccccc2)C(=O)c2nccs2)C1 (some centres not stated) | 6.68 | 5.04 |  |  |  |
| CC(C)c1ccc(CCCN2CC(=O)N(CC(=O)N[C@@H](CC3CCCN(C(=N)N)C3)C(=O)c3nccs3)[C@H](Cc3ccccc3)C2=O)cc1 (some centres not stated) | 6.43 | 5.15 |  |  |  |
| N=C(N)N1CCCC(C[C@H](NC(=O)CN2C(=O)CN(CCCc3ccccc3)C(=O)[C@H]2Cc2ccccc2Cl)C(=O)c2nccs2)C1 (some centres not stated) | 7.74 | 5.01 | 8.92 |  |  |
| N=C(N)NCCC[C@H](NC(=O)CN1C(=O)CN(CCCc2ccccc2)C(=O)[C@H]1Cc1ccccc1)C(N)=O |  |  |  | 35 | 15 |
| CCCCN1CC(=O)N(CC(=O)N[C@@H](CC2CCCN(C(=N)N)C2)C(=O)c2nccs2)[C@H](Cc2ccccc2)C1=O (some centres not stated) | 6.47 | 4.82 | 7.49 |  |  |
| N=C(N)N1CCCC(C[C@H](NC(=O)CN2C(=O)CN(CCCc3ccccc3)C(=O)[C@H]2Cc2ccccc2)C(=O)N2CCCC2)C1 (some centres not stated) | 6.18 | 5.06 | 6.89 |  |  |
| CNC(=O)[C@H](CC1CCCN(C(=N)N)C1)NC(=O)CN1C(=O)CN(CCCc2ccccc2)C(=O)[C@H]1Cc1ccccc1 (some centres not stated) | 6.36 | 5.64 | 7.26 |  |  |
| N=C(N)N1CCCC(C[C@H](NC(=O)CN2C(=O)CN(CCc3ccccc3)C(=O)[C@H]2Cc2ccccc2)C(=O)c2nccs2)C1 (some centres not stated) | 6.00 | 4.35 |  |  |  |
| C[C@@H]1C(=O)N(CCCc2ccccc2)CC(=O)N1CC(=O)N[C@@H](C[C@@H]1CCCN(C(=N)N)C1)C(=O)c1nccs1 | 6.06 | 6.47 |  |  |  |
| N=C(N)N1CCCC(C[C@H](NC(=O)CN2C(=O)CN(CCCc3ccccc3)C(=O)[C@H]2Cc2ccccc2)C(=O)c2nc3ccccc3s2)C1 (some centres not stated) | 6.82 | 5.43 | 7.10 |  |  |
| N=C(N)N1CCCC(C[C@H](NC(=O)CN2C(=O)CN(CCCc3ccc(Cl)c(Cl)c3)C(=O)[C@H]2Cc2ccccc2)C(=O)c2nccs2)C1 (some centres not stated) | 6.60 | 5.14 |  |  |  |
| N=C(N)N1CCCC(C[C@H](NC(=O)CN2C(=O)CN(CCCc3ccccc3)C(=O)[C@H]2Cc2ccc(Cl)c(Cl)c2)C(=O)c2nccs2)C1 (some centres not stated) | 7.10 | 5.11 | 8.10 |  |  |
| N=C(N)N1CCC[C@@H](C[C@H](NC(=O)CN2C(=O)CN(CCCc3ccccc3)C(=O)[C@H]2Cc2ccccc2)C(=O)c2nccs2)C1 | 6.77 | 5.04 | 7.26 |  |  |
| N=C(N)N1CCCC(C[C@H](NC(=O)CN2C(=O)CN(Cc3ccccc3)C(=O)[C@@H]2Cc2ccc3ccccc3c2)C(=O)c2nccs2)C1 (some centres not stated) | 6.77 |  | 8.46 |  |  |
| COc1ccc(CCCN2CC(=O)N(CC(=O)N[C@@H](CC3CCCN(C(=N)N)C3)C(=O)c3nccs3)[C@H](Cc3ccccc3)C2=O)cc1 (some centres not stated) | 6.80 | 4.85 |  |  |  |
| N=C(N)N1CCCC(C[C@H](NC(=O)CN2C(=O)CN(CCCc3ccccc3)C(=O)[C@H]2Cc2cccc(Cl)c2)C(=O)c2nccs2)C1 (some centres not stated) | 6.41 | 5.32 | 7.70 |  |  |
| N=C(N)N1CCCC(C[C@H](NC(=O)CN2C(=O)CN(CCCc3ccccc3)C(=O)[C@H]2Cc2ccccc2)C(=O)N2CCCCC2)C1 (some centres not stated) | 5.18 |  | 6.08 |  | 52 |
